Tests used:
Type in all cases: cell-based
human TLR9 = biological target: T1, human TLR9 (Homo sapiens, UniProt Q9NR96); test: TLR9 inhibition reporter assay (HEK-Blue cells, SEAP reporter, ODN2006 stimulation); conditions: HEK-Blue cells overexpressing human TLR9, SEAP reporter, ODN2006 5 nM
T1 construct: host or cells: HEK-Blue cells (HEK293-derived reporter line)
T1 sequence (Q9NR96 26-1032): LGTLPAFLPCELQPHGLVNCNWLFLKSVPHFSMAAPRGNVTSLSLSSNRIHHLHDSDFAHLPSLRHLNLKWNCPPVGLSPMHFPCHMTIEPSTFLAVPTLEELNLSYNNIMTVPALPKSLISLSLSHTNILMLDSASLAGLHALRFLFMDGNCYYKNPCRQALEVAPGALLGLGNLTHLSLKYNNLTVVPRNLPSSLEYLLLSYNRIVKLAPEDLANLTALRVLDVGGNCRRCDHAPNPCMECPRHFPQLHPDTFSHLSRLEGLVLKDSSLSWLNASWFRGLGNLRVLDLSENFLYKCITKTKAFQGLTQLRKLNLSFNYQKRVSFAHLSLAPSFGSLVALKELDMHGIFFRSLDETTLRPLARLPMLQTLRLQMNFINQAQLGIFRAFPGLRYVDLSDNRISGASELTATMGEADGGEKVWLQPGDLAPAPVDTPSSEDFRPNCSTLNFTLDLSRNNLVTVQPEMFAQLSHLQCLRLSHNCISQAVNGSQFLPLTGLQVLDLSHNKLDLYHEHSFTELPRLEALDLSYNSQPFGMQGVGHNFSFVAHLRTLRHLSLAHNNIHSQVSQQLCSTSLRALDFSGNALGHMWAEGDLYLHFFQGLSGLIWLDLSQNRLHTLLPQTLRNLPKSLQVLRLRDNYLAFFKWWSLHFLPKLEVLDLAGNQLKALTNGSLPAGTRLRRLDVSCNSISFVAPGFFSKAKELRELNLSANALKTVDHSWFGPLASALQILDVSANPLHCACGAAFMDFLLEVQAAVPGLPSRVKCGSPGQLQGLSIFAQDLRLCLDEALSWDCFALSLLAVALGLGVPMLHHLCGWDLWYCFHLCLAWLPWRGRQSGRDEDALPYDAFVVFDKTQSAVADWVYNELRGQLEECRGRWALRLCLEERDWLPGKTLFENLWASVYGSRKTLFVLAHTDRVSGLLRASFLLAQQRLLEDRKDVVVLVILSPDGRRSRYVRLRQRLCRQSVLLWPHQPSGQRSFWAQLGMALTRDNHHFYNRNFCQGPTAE
Method in brief: (§1)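 Read-out is SEAP activity in HEK-Blue detection medium after 22 h at 37 °C, converted to percent inhibition against agonist-plus-DMSO and reference-inhibitor controls. Cells saw compound (0.05 nM–50 μM, 30 min, room temperature) before gardiquimod 7.5 μM, R848 15.9 μM or ODN2006 5 nM for TLR7, TLR8 and TLR9, respectively.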

human TLR7 = biological target: T2, human TLR7 (Homo sapiens, UniProt Q9NYK1); test: TLR7 inhibition reporter assay (HEK-Blue cells, SEAP reporter, gardiquimod stimulation); conditions: HEK-Blue cells overexpressing human TLR7, SEAP reporter, gardiquimod 7.5 μM
T2 construct: host or cells: HEK-Blue cells (HEK293-derived reporter line)
T2 sequence (Q9NYK1 27-1049): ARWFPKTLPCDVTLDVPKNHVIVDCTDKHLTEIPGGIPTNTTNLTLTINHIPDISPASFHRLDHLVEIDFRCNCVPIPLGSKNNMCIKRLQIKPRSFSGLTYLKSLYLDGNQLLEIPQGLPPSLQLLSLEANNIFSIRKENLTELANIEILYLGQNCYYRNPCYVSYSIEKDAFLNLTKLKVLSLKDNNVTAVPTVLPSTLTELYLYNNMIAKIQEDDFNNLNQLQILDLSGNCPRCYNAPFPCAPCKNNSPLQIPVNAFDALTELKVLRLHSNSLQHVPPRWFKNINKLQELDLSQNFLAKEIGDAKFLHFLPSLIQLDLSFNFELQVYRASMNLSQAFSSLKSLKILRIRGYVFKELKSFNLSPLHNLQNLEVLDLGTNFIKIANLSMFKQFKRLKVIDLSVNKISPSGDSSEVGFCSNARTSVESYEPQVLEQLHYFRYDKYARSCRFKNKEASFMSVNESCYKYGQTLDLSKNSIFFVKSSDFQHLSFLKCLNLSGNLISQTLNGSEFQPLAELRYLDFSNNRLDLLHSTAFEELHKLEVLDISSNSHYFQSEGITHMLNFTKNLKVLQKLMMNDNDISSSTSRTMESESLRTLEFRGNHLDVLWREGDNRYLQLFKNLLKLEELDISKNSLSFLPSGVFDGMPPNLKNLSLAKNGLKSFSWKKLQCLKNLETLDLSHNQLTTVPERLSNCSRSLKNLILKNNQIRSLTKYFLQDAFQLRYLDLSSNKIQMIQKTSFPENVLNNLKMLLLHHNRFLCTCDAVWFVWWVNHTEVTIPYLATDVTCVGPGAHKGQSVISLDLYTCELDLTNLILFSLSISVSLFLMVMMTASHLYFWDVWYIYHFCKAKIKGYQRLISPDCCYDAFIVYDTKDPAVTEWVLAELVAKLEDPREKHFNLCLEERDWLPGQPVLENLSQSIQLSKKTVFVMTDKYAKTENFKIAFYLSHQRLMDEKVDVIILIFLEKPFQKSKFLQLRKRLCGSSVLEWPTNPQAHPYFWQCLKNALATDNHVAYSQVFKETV
Method in brief: as §1

human TLR8 = biological target: T3, human TLR8 (Homo sapiens, UniProt Q9NR97); test: TLR8 inhibition reporter assay (HEK-Blue cells, SEAP reporter, R848 stimulation); conditions: HEK-Blue cells overexpressing human TLR8, SEAP reporter, R848 15.9 μM
T3 construct: host or cells: HEK-Blue cells (HEK293-derived reporter line)
T3 sequence (Q9NR97 27-1041): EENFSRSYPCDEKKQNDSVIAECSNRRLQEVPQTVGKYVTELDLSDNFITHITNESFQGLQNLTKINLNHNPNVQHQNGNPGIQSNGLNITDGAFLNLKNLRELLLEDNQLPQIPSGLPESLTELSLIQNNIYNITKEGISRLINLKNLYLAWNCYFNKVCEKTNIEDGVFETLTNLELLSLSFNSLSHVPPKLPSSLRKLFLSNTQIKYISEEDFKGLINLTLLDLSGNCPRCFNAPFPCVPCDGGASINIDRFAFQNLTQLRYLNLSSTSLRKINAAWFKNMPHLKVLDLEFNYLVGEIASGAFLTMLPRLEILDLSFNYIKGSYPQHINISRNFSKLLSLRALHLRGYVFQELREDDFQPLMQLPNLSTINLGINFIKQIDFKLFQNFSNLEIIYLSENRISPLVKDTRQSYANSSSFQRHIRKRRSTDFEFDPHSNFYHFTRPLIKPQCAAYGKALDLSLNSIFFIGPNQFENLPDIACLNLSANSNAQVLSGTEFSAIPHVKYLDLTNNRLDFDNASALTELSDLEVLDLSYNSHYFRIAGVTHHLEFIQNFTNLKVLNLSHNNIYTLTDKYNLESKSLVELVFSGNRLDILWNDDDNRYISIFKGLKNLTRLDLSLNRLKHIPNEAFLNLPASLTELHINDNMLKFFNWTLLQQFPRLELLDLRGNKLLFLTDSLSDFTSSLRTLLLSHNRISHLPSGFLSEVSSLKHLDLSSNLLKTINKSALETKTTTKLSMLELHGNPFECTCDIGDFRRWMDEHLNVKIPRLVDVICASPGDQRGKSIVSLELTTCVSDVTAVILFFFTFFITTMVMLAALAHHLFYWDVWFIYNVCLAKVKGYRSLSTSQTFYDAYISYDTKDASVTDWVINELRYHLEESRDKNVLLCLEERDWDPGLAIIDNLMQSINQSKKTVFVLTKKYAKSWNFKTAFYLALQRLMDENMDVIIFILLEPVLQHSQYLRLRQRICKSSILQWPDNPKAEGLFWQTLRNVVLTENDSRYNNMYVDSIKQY
Method in brief: as §1

Row | Compound | IC50 (human TLR9) [nM] | IC50 (human TLR7) [nM] | IC50 (human TLR8) [nM]
1 | Cc1cc2nnnn2cc1-c1[nH]c2ccc(C3CCNCC3)cc2c1C(C)C [Example 76, 6-(3-isopropyl-5-(piperidin-4-yl)-1H-indol-2-yl)-7-methyltetrazolo[1,5-a]pyridine] | 1000 to 50000 | < 100 | < 100
2 | CC(C)c1c(-c2cc(C(F)(F)F)c3nccn3c2)[nH]c2ccc(C3CCN(C(=O)CN(C)C)CC3)cc12 [Example 507, 2-(dimethylamino)-1-(4-(3-isopropyl-2-(8-(trifluoromethyl)imidazo[1,2-a]pyridin-6-yl)-1H-indol-5-yl)piperidin-1-yl)ethan-1-one] | 100 to 1000 | < 100 | < 100
3 | CC(C)c1c(-c2cc(C(F)(F)F)c3nccn3c2)[nH]c2ccc(C3CCN(Cc4cnn(C)c4)CC3)cc12 [Example 933, 6-(3-isopropyl-5-(1-((1-methyl-1H-pyrazol-4-yl)methyl)piperidin-4-yl)-1H-indol-2-yl)-8-(trifluoromethyl)imidazo[1,2-a]pyridine] | 100 to 1000 | < 100 | < 100
4 | CNC(=O)CN1CCC(c2ccc3[nH]c(-c4cc(C(F)(F)F)c5nc(C)cn5c4)c(C(C)C)c3c2)CC1 [Example 377, 2-(4-(3-isopropyl-2-(2-methyl-8-(trifluoromethyl)imidazo[1,2-a]pyridin-6-yl)-1H-indol-5-yl)piperidin-1-yl)-N-methylacetamide] | 1000 to 50000 | < 100 | 100 to 1000
5 | CC(C)c1c(-c2cn3ccnc3cc2C(F)(F)F)[nH]c2ccc(C3CCN(CC(=O)N(C)C)CC3)cc12 [Example 427, 2-(4-(3-isopropyl-2-(7-(trifluoromethyl)imidazo[1,2-a]pyridin-6-yl)-1H-indol-5-yl)piperidin-1-yl)-N,N-dimethylacetamide] | 1000 to 50000 | 100 to 1000 | < 100
6 | Cc1ccnc2c1c(-c1[nH]c3ccc(C4CCN(CC(=O)N(C)C)CC4)cc3c1C(C)C)cn2C [Example 285, 2-(4-(2-(1,4-dimethyl-1H-pyrrolo[2,3-b]pyridin-3-yl)-3-isopropyl-1H-indol-5-yl)piperidin-1-yl)-N,N-dimethylacetamide] | 1000 to 50000 | < 100 | < 100
7 | Cc1nc2cc(-c3[nH]c4ccc(C5CCN(CC(C)(C)O)CC5)cc4c3C(C)C)ccn2n1 [Example 753, 1-(4-(3-isopropyl-2-(2-methyl-[1,2,4]triazolo[1,5-a]pyridin-7-yl)-1H-indol-5-yl)piperidin-1-yl)-2-methylpropan-2-ol] | 100 to 1000 | < 100 | 100 to 1000
8 | Cc1c(-c2ccnc3[nH]ccc23)[nH]c2ccc(C3CCN(C4CCN(C)CC4)CC3)cc12 [Example 810, 4-(3-methyl-5-(1′-methyl-[1,4′-bipiperidin]-4-yl)-1H-indol-2-yl)-1H-pyrrolo[2,3-b]pyridine] | 100 to 1000 | < 100 | < 100
9 | CC(C)c1c(-c2ccn3nncc3c2)[nH]c2ccc(C3CCN(C4CCOCC4)CC3)cc12 [Example 701, 5-(3-isopropyl-5-(1-(tetrahydro-2H-pyran-4-yl)piperidin-4-yl)-1H-indol-2-yl)-[1,2,3]triazolo[1,5-a]pyridine] | 100 to 1000 | < 100 | < 100
10 | CNC(=O)CN1CCC(c2ccc3[nH]c(-c4ccnc5[nH]ncc45)c(C(C)C)c3c2)CC1 [Example 276, 2-(4-(3-isopropyl-2-(1H-pyrazolo[3,4-b]pyridin-4-yl)-1H-indol-5-yl)piperidin-1-yl)-N-methylacetamide] | 1000 to 50000 | < 100 | < 100
11 | Cc1ccc(-c2[nH]c3ccc(C4CCN(C(=O)CN(C)C)CC4)cc3c2C(C)C)c2ncnn12 [Example 516, 2-(dimethylamino)-1-(4-(3-isopropyl-2-(5-methyl-[1,2,4]triazolo[1,5-a]pyridin-8-yl)-1H-indol-5-yl)piperidin-1-yl)ethan-1-one] | 1000 to 50000 | < 100 | < 100
12 | Cc1cc(-c2[nH]c3ccc(C4CCN(C5CCOCC5)CC4)cc3c2C(C)C)cc2cccnc12 [Example 703, 6-(3-isopropyl-5-(1-(tetrahydro-2H-pyran-4-yl)piperidin-4-yl)-1H-indol-2-yl)-8-methylquinoline] | 1000 to 50000 | < 100 | < 100
13 | CCc1c(-c2cnc3cnccn23)[nH]c2ccc(C3CCNCC3)cc12 [Example 28, 3-(3-ethyl-5-(piperidin-4-yl)-1H-indol-2-yl)imidazo[1,2-a]pyrazine] | 100 to 1000 | 1000 to 50000 | 1000 to 50000
14 | CC(C)c1c(-c2ccnc3[nH]ncc23)[nH]c2ccc(C3CCN(C(=O)CS(C)(=O)=O)CC3)cc12 [Example 614, 1-(4-(3-isopropyl-2-(1H-pyrazolo[3,4-b]pyridin-4-yl)-1H-indol-5-yl)piperidin-1-yl)-2-(methylsulfonyl)ethan-1-one] | > 50000 | < 100 | < 100

Reference: patent publication US11739098B2 (BRISTOL-MYERS SQUIBB COMPANY, priority 2017, dated 2023)
